From ChEMBL document CHEMBL5584250, “5-HT6 receptor neutral antagonists protect astrocytes: A lesson from 2-phenylpyrrole derivatives” (Eur J Med Chem, 2024)

Assays:
[1] = target: T1, 5-hydroxytryptamine receptor 1A (Homo sapiens, UniProt P08908); assay: Displacement of [3H]-8-OH-DPAT from human 5-HT1A receptor extracted from HEK293 cell membrane by microbeta plate reader analysis; format: cell membranes
T1 sequence (P08908 whole entry): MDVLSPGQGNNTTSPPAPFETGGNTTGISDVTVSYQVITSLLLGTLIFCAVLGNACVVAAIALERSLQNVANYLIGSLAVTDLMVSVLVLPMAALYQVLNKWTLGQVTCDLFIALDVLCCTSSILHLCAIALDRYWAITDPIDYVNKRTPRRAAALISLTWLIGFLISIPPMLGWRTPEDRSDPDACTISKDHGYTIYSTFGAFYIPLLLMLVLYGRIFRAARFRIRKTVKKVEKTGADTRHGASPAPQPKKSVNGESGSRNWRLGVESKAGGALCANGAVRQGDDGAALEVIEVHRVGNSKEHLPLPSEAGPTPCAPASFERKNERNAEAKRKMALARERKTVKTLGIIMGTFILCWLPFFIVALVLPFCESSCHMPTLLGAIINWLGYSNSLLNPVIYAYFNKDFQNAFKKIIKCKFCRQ

in vitro [2] = conditions: rat, microsomes
[3] = Drug metabolism in rat liver microsomes assessed as hydroxylation mediated metabolite formation by UPLC-MS analysis; format: ADME, Microsome
in vitro [4] = conditions: rat, microsomes; remark: listed apart in the source
D(2) dopamine receptor = D(2) dopamine receptor (Homo sapiens, UniProt P14416); assay: Displacement of [3H]-raclopride from human D2L receptor extracted from HEK293 cell membrane by microbeta plate reader analysis; format: cell membranes
[5] = target: 5-hydroxytryptamine receptor 6 (Homo sapiens, UniProt P50406)
Description: Displacement of [3H]-LSD from human 5-HT6 receptor extracted from HEK293 cell membrane by microbeta plate reader analysis

[6] = target: 5-hydroxytryptamine receptor 7 (Homo sapiens, UniProt P34969); assay: Displacement of [3H]-5-CT from human 5-HT7 receptor extracted from HEK293 cell membrane by microbeta plate reader analysis; format: cell membranes
[7] = target: 5-hydroxytryptamine receptor 2A (Homo sapiens, UniProt P28223); assay: Displacement of [3H]-ketanserin from human 5-HT2A receptor extracted from CHO-K1 cell membrane by microbeta plate reader analysis; format: cell membranes
[8] = Drug metabolism in rat liver microsomes by UPLC-MS analysis; format: ADME, Microsome
CYP3A4 = CYP3A4 (Homo sapiens, UniProt P08684); assay: Inhibition of CYP3A4 (unknown origin) at 10 uM relative to control; format: ADME
[9] = Cytotoxicity against human SH-SY5Y cells incubated for 3 hrs by MTT assay; format: toxicity, cell-based
[10] = target: hERG (KCNH2) potassium channel (Homo sapiens, UniProt Q12809); assay: Inhibition of hERG potassium channel at 1 uM relative to control; format: toxicity
[11] = Cytotoxicity against rat PC12 cells incubated for 3 hrs by MTT assay; format: toxicity, cell-based, PC-12
[12] = Cytotoxicity against mouse C8D1A cells incubated for 3 hrs by MTT assay; format: toxicity, cell-based, C8-D1A
[13] = Cytotoxicity against human astrocytes incubated for 3 hrs by MTT assay; format: toxicity, cell-based, Astrocyte

5-hydroxytryptamine receptor 7, sequence (P34969 whole entry): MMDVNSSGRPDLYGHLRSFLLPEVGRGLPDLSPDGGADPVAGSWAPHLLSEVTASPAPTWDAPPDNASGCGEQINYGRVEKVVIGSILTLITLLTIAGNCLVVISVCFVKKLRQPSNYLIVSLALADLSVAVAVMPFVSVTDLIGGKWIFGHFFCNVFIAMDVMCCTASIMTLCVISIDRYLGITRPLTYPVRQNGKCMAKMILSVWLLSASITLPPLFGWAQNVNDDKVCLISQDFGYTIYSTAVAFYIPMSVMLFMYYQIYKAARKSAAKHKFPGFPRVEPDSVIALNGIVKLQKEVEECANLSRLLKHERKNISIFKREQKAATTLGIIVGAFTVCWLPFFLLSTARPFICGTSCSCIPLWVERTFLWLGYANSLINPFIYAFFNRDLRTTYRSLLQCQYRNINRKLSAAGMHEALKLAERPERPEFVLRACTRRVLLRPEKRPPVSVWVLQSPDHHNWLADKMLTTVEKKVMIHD
D(2) dopamine receptor, sequence (P14416 whole entry): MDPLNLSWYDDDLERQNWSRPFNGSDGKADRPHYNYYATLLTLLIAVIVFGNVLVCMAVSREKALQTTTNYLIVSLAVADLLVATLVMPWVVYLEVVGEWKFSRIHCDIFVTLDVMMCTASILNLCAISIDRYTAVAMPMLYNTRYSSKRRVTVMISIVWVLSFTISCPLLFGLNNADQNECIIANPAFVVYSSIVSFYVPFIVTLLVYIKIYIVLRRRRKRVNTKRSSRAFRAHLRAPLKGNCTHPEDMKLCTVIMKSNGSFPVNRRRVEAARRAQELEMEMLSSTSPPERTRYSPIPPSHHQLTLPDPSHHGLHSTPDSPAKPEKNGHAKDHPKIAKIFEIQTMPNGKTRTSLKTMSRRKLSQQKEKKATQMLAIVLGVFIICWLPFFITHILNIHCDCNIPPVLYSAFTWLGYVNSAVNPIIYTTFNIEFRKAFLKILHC
5-hydroxytryptamine receptor 2A, sequence (P28223 whole entry): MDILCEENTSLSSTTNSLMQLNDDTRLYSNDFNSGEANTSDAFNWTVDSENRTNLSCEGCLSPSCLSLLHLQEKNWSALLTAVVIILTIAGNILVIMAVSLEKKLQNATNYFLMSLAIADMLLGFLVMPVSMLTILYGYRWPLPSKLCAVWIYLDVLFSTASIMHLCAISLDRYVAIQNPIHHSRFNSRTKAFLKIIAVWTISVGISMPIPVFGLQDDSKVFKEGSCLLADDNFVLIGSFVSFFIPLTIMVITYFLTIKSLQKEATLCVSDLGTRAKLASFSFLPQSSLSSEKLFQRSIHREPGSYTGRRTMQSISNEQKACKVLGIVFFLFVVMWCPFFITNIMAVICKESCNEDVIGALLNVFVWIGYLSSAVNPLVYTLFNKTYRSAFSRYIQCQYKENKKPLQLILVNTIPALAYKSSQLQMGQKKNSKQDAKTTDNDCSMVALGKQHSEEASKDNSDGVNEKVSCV
5-hydroxytryptamine receptor 6, sequence (P50406 whole entry): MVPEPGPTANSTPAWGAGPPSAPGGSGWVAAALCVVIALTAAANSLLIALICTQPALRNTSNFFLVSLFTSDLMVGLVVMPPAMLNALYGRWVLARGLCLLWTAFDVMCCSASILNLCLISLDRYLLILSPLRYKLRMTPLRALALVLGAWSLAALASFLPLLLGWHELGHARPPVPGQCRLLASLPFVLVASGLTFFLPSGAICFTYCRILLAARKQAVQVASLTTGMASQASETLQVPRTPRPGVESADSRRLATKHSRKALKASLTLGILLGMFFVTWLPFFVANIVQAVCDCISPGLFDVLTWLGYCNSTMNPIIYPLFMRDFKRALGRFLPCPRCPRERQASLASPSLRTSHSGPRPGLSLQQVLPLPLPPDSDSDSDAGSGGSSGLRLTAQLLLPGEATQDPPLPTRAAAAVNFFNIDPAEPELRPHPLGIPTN
hERG (KCNH2) potassium channel, sequence (Q12809 whole entry): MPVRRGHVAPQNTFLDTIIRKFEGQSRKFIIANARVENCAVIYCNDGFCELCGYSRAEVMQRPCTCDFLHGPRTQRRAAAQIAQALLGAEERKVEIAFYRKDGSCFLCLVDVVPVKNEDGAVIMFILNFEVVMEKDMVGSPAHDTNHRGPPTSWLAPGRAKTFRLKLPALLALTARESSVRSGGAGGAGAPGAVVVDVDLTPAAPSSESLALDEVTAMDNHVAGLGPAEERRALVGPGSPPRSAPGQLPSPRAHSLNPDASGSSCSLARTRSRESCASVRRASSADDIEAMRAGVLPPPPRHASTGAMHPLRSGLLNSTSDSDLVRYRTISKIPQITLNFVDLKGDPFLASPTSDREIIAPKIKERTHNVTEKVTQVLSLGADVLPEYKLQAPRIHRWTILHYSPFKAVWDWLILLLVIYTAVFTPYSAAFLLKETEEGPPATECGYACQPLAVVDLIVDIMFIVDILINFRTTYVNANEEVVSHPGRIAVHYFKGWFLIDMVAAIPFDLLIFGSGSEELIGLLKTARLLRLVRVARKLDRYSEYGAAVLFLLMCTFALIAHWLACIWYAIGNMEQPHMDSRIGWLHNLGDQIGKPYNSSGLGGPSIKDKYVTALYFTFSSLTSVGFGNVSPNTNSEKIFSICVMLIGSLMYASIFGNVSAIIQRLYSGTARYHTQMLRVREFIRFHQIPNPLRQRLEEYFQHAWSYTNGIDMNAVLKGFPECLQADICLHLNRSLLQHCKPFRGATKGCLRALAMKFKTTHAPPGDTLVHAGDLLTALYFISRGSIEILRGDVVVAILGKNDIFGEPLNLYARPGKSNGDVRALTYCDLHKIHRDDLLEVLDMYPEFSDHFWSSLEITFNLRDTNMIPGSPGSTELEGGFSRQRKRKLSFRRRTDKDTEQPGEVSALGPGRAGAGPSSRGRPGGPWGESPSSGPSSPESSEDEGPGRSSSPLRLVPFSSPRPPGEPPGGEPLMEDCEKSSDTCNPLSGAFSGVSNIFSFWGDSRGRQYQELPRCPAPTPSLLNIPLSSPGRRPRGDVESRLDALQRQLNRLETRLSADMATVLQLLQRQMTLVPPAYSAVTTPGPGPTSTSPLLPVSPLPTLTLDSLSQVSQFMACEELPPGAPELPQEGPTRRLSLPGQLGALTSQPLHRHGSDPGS
CYP3A4, sequence (P08684 whole entry): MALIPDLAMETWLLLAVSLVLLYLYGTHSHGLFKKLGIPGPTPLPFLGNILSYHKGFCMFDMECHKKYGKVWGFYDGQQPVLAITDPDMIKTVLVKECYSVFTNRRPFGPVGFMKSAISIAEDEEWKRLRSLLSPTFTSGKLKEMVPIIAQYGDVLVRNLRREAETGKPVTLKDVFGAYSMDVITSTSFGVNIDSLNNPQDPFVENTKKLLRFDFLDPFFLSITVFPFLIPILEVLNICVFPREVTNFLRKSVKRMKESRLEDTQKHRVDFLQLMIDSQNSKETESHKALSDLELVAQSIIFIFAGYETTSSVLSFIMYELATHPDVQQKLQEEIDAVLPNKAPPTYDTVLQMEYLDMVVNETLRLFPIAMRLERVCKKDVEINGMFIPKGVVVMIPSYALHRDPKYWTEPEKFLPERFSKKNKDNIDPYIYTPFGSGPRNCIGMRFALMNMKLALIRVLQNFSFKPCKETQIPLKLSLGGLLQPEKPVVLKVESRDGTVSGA

With `O=S(=O)(c1cccc(NC2CCNCC2)c1)n1cccc1-c1ccccc1` the Ki [1] was 40600 nM, the microsomal CLint at 1 h, 10 µM (in vitro [2]) was 20.6 µL/min/mg and the Drug metabolism [3] was “Metabolite_Detected”. For the same compound, the half-life at 1 h, 10 µM (in vitro [4]) was 101 min, the Ki (D(2) dopamine receptor) was 10800 nM and the Ki [5] was 4 nM. For the same compound, the Ki [6] was 1990 nM and the Ki [7] was 1540 nM.
In the case of `O=S(=O)(c1ccccc1)n1cccc1-c1cccc(N2CCNCC2)c1`, the Ki [1] is reported as 2470 nM, the microsomal CLint at 1 h, 10 µM (in vitro [2]) is reported as 109 µL/min/mg and the Drug metabolism [3] is reported as “Metabolite_Detected”. For the same compound, the half-life at 1 h, 10 µM (in vitro [4]) was 15.3 min, the Ki (D(2) dopamine receptor) was 2700 nM and the Ki [5] was 27 nM. For the same compound, the Ki [6] was 1320 nM and the Ki [7] was 15900 nM.
Compound `COc1cccc(-c2cccn2S(=O)(=O)c2cccc(N3CCNCC3)c2)c1` has a Ki [1] of 916 nM, a microsomal CLint at 1 h, 10 µM (in vitro [2]) of 56.7 µL/min/mg and a half-life at 1 h, 10 µM (in vitro [4]) of 36.7 min. The Ki (D(2) dopamine receptor) was 5200 nM, the Ki [5] was 1 nM and the Drug metabolism [8] was “Metabolite_Notdetected”. For the same compound, the Ki [6] was 11600 nM and the Ki [7] was 655 nM.
Compound `O=C(NC1CCNCC1)c1ccn(S(=O)(=O)c2cccc(Cl)c2)c1-c1cccc(F)c1` has a Ki [1] of 68600 nM, a Ki (D(2) dopamine receptor) of 7690 nM and a Ki [6] of 84000 nM. It also gave a Ki [7] of 10600 nM.
With `O=S(=O)(c1cccc(N2CCNCC2)c1)n1cccc1-c1ccccc1` the Ki [1] was 755 nM, the microsomal CLint at 1 h, 10 µM (in vitro [2]) was 24.9 µL/min/mg and the Drug metabolism [3] was “Metabolite_Detected”. For the same compound, the half-life at 1 h, 10 µM (in vitro [4]) was 83.6 min, the Ki (D(2) dopamine receptor) was 2170 nM and the Ki [5] was 1 nM. It also gave a Ki [6] of 12300 nM and a Ki [7] of 412 nM.
In the case of `O=S(=O)(c1cccc(N2CCNCC2)c1)n1cccc1-c1cccc(F)c1`, the inhibition at 10 µM (CYP3A4) is reported as 94%, the Ki [1] is reported as 1840 nM and the microsomal CLint at 1 h, 10 µM (in vitro [2]) is reported as 32.4 µL/min/mg. The half-life at 1 h, 10 µM (in vitro [4]) was 49.3 min, the IC50 at 3 h [9] was 18500 nM and the inhibition at 1 µM [10] was 8%. The Ki (D(2) dopamine receptor) was 4330 nM, the Ki [5] was 1 nM and the IC50 at 3 h [11] was 25600 nM. The IC50 at 3 h [12] was 37400 nM, the IC50 at 3 h [13] was 39300 nM and the Drug metabolism [8] was “Metabolite_Notdetected”. The Ki [6] was 11500 nM and the Ki [7] was 2510 nM.
